Data taken from patent US7713994B2 (Wyeth LLC, priority 2005, dated 2010).
pIC50: −log10 of the molar value. Read-outs that look alike come from different tables or passages of the source.

Experiments:
LoVo = assay: Cytotoxicity assay (SRB), LoVo; type: cell-based; details: LoVo cells, SRB, read-out: In Vitro Cellular Activity IC50 LOVO
In short: (§1)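 Growth inhibition, SRB method: 3-day continuous compound exposure for HCT-116, LoVo and MCF-7 and 6-day exposure for BT474. Absorbance at 540 nm reflects surviving cell protein relative to controls.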

cyclin D1/cdk 4 enzyme = target: T1, cyclin D1/cdk 4 enzyme (Homo sapiens, UniProt P11802); assay: CDK4 ELISA kinase assay (phospho-Rb ser 795 detection); type: biochemical
T1 construct: made in house; host or cells: Sf9 insect cells, recombinant baculovirus
In short: (§2)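 GST-Rb C-terminal fragment coated on wells; kinase reaction: 200 μM ATP, 0.5 mg/ml BSA, HEPES pH 7.5, 10 mM MgCl2, baculovirus/Sf9 cyclin-CDK, 30° C, 1 h. Readout anti-phospho-Rb Ser795, HRP, TMB, A450. Test compound 10 ug/ml final.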

cyclin E/CDK2 enzyme = target: T2, cyclin E/CDK2 enzyme (Homo sapiens, UniProt P24941); assay: CDK2 ELISA kinase assay (phospho-Rb ser 795 detection); type: biochemical
T2 construct: made in house; host or cells: Sf9 insect cells, recombinant baculovirus
In short: as §2

HCT-116 = assay: Cytotoxicity assay (SRB), HCT-116; type: cell-based; details: HCT116 cells, SRB, read-out: In Vitro Cellular Activity IC50 HCT116
In short: as §1

BT474 = assay: Cytotoxicity assay (SRB), BT474; type: cell-based
In short: as §1

MCF-7 = assay: Cytotoxicity assay (SRB), MCF-7; type: cell-based; details: MCF-7 cells, SRB, read-out: In Vitro Cellular Activity IC50 MCF-7
In short: as §1

cyclin B/CDK1 enzyme = target: T3, cyclin B/CDK1 enzyme (Homo sapiens, UniProt P06493); assay: CDK1 ELISA kinase assay (phospho-Rb ser 795 detection); type: biochemical
T3 construct: purchased New England BioLabs; host or cells: Sf9 insect cells, recombinant baculovirus
In short: as §2

[1] = Homo sapiens, LoVo, 72 h, 3 days
[2] = In Vitro Enzyme Assay, cyclin D1/cdk 4, read-out: CDK4 IC50
[3] = In Vitro Enzyme Assay, cyclin E/CDK2, read-out: CDK2 IC50
[4] = Homo sapiens, HCT-116, 72 h, 3 days
[5] = Homo sapiens, BT-474, 144 h, BT474 cells, 6 days, SRB; read-out: In Vitro Cellular Activity IC50 BT474
[6] = Homo sapiens, MCF7, 72 h, 3 days
[7] = In Vitro Enzyme Assay, cyclin B/CDK1, read-out: CDK1 IC50
[8] = Homo sapiens, LoVo, 72 h, three days
[9] = In Vitro Enzyme Assays, 200 μM ATP, read-out: CDK4 IC50
[10] = In Vitro Enzyme Assays, read-out: CDK2 IC50
[11] = Homo sapiens, HCT-116, 72 h, three days
[12] = Homo sapiens, BT-474, 144 h, BT474 cells, SRB, 6 days; read-out: In Vitro Cellular Activity IC50 BT474
[13] = Homo sapiens, MCF7, 72 h, three days
[14] = In Vitro Enzyme Assays, read-out: CDK1 IC50

T3 sequence (P06493 whole entry): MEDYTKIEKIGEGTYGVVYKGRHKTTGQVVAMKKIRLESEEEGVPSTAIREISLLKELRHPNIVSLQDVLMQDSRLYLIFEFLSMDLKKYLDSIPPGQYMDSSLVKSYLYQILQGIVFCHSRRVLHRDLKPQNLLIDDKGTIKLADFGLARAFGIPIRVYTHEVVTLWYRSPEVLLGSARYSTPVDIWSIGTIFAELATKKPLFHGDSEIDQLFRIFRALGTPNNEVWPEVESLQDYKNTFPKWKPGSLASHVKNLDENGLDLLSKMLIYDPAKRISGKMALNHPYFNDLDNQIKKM
T3 sequence (P14635 whole entry partner): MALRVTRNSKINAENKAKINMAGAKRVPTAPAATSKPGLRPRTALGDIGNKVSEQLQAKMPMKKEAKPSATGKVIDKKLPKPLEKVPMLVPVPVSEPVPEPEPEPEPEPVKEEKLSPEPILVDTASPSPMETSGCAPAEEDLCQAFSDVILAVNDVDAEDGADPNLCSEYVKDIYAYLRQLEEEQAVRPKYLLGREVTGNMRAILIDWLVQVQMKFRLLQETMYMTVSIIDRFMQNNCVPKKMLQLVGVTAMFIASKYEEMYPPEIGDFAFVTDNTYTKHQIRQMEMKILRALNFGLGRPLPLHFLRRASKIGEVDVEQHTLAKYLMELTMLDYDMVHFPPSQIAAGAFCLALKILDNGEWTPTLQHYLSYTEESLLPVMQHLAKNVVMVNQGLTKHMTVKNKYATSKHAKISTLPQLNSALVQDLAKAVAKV
T1 sequence (P11802 whole entry, species assumed): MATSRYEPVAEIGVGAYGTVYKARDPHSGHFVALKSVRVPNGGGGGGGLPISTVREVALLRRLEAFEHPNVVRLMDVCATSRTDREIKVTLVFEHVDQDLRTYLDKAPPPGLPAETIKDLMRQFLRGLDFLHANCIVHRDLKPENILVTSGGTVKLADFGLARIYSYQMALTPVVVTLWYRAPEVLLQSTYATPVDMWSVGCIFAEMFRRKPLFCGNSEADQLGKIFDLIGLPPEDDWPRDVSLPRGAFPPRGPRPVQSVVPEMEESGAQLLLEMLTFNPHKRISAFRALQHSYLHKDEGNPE
T1 sequence (P24385 whole entry partner, species assumed): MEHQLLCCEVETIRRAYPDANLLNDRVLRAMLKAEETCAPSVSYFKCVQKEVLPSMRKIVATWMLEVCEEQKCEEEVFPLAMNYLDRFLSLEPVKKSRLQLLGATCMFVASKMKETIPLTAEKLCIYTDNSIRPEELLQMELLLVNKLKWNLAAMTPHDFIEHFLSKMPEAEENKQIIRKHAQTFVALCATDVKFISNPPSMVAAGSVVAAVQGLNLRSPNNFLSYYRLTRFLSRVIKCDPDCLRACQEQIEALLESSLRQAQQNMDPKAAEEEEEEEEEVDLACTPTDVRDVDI

SMILES | pIC50 (LoVo; [1]) | pIC50 (cyclin D1/cdk 4 enzyme; [2]) | pIC50 (cyclin E/CDK2 enzyme; [3]) | pIC50 (HCT-116; [4]) | pIC50 (BT474; [5]) | pIC50 (MCF-7; [6]) | pIC50 (cyclin B/CDK1 enzyme; [7]) | pIC50 (cyclin D1/cdk 4 enzyme; [9]) | pIC50 (cyclin E/CDK2 enzyme; [10]) | pIC50 (cyclin B/CDK1 enzyme; [14]) | also measured
O=C1NC(=O)c2ccc(-c3ccco3)cc2/C1=C/NCc1cc(O)ccc1I [Example 503, 6-Furan-2-yl-4-[(5-hydroxy-2-iodo-benzylamino)-methylene]-4H-isoquinoline-1,3-dione] | 5.29 | 7.70 | 4.46 | 5.28 | 5.80 | 6.00 | < 4.30 | – | – | – | –
COc1ccc(C(=O)NN/C=C2\C(=O)NC(=O)c3ccc(Br)cc32)cc1O [Example 202, N′-[(Z)-(6-Bromo-1,3-dioxo-2,3-dihydroisoquinolin-4(1H)-ylidene)methyl]-3-hydroxy-4-methoxybenzohydrazide] | – | – | – | – | – | – | – | 4.48 | < 4.30 | < 4.30 | pIC50 (LoVo; [8]): < 4.30; pIC50 (HCT-116; [11]): < 4.30; pIC50 (BT474; [12]): 4.74; pIC50 (MCF-7; [13]): < 4.30
O=C1NC(=O)c2ccc(-c3ccccc3F)cc2C1=CNCc1ccc(O)c(O)c1 [Example 769, 4-[(3,4-Dihydroxy-benzylamino)-methylene]-6-(2-fluoro-phenyl)-4H-isoquinoline-3,3-dione] | 4.81 | 7.52 | 5.41 | 4.87 | 4.75 | 4.75 | 4.83 | – | – | – | –
CCOC[C@@H]1CCCN1Cc1ccc(N/C=C2\C(=O)NC(=O)c3ccc(I)cc32)cc1 [Example 411, 4-{[4-(2-Ethoxymethyl-pyrrolidin-1-ylmethyl)-phenylamino]-methylene}-6-iodo-4H-isoquinoline-1,3-dione] | 5.46 | – | – | 5.42 | 6.35 | 5.80 | – | 6.15 | < 4.30 | < 4.30 | –
CN(C)C1CCN(Cc2ccc(N/C=C3\C(=O)NC(=O)c4ccc(-c5ccoc5)cc43)cc2)C1 (stereo not drawn) [Example 513, (4Z)-4-{[(4-{[3-(Dimethylamino)pyrrolidin-1-yl]methyl}phenyl)amino]methylene}-6-(3-furyl)isoquinoline-1,3(2H,4H)-dione] | 5.46 | 6.77 | 4.88 | 5.81 | 5.74 | 5.60 | < 4.30 | – | – | – | –
COC(=O)[C@H]1CCCN1Cc1ccc(NC=C2C(=O)NC(=O)c3ccc(I)cc32)cc1 [Example 367, D-1-{4-[(6-Iodo-1,3-dioxo-2,3-dihydro-1H-isoquinolin-4-ylidenemethyl)-amino]-benzyl}-pyrrolidine-2-carboxylic acid methyl ester] | – | – | – | – | – | – | – | 4.90 | 4.36 | < 4.30 | pIC50 (LoVo; [8]): 4.59; pIC50 (HCT-116; [11]): 4.89; pIC50 (BT474; [12]): 4.82; pIC50 (MCF-7; [13]): 4.89
O=C1NC(=O)c2ccc(I)cc2/C1=C/Nc1ccc(N2CCN(C3CCC3)CC2)cc1 [Example 392, (4Z)-4-({[4-(4-Cyclobutylpiperazin-1-yl)phenyl]amino}methylene)-6-iodoisoquinoline-1,3(2H,4H)-dione] | 5.32 | – | – | 5.60 | 5.42 | 5.38 | – | 6.16 | 4.48 | < 4.30 | –
O=C1NC(=O)c2ccc(Br)cc2/C1=C/NCc1ccc(NC(=O)C(Cl)Cl)c(O)c1 [Example 320, N-[4-({[(Z)-(6-Bromo-1,3-dioxo-2,3-dihydroisoquinolin-4(1H)-ylidene)methyl]amino}methyl)-2-hydroxyphenyl]-2,2-dichloroacetamide] | – | – | – | – | – | – | – | 6.92 | 5.40 | 5.17 | pIC50 (LoVo; [8]): 5.35; pIC50 (HCT-116; [11]): 5.68; pIC50 (BT474; [12]): 5.70; pIC50 (MCF-7; [13]): 5.31
COc1ccc(NC=C2C(=O)NCc3cc(-c4cc[nH]c4)ccc32)cc1 [Example 850, 4-[(4-Methoxy-phenylamino)-methylene]-7-(1H-pyrrol-3-yl)-1,4-dihydro-2H-isoquinolin-3-one] | 4.62 | < 4.30 | 4.71 | 4.80 | 4.33 | < 4.30 | < 4.30 | – | – | – | –
NS(=O)(=O)c1ccc(CNC=C2C(=O)NC(=O)c3ccc(-c4ccc[nH]4)cc32)cc1 [Example 638, 4-({[1,3-Dioxo-6-(1H-pyrrol-2-yl)-2,3-dihydro-1H-isoquinolin-4-ylidenemethyl]-amino}-methyl)-benzenesulfonamide] | < 4.30 | 7.30 | 5.22 | < 4.30 | 4.44 | < 4.30 | 4.76 | – | – | – | –
O=C1NC(=O)c2ccc(N3CCCC3)cc2/C1=C/NCc1ccc(O)c(O)c1 [Example 609, 4-[(3,4-Dihydroxy-benzylamino)-methylene]-6-pyrrolidin-1-yl-4H-isoquinoline-1,3-dione] | 4.72 | 7.70 | 4.92 | 4.51 | 4.74 | 4.87 | 4.93 | – | – | – | –
CN1CCN(c2ccc(NC=C3C(=O)NC(=O)c4ccc(C=Cc5ccncc5)cc43)cc2)CC1 [Example 676, 4-{[4-(4-Methyl-piperazin-1-yl)-phenylamino]-methylene}-6-(2-pyridin-4-yl-vinyl)-4H-isoquinoline-1,3-dione] | 5.34 | 6.04 | 4.80 | 5.60 | 5.11 | 5.14 | 4.82 | – | – | – | –
NS(=O)(=O)c1ccc(CNC=C2C(=O)NC(=O)c3ccc(-c4cccc(F)c4)cc32)cc1 [Example 739, 4-({[6-(3-Fluoro-phenyl)-1,3-dioxo-2,3-dihydro-1H-isoquinolin-4-ylidenemethyl]-amino}-methyl)-benzenesulfonamide] | < 4.30 | 5.75 | < 4.30 | 4.58 | 4.48 | 4.77 | 4.52 | – | – | – | –
CN(CCN1CCCCC1)c1ccc(N/C=C2\C(=O)NC(=O)c3ccc(Br)cc32)cc1 [Example 865, (4Z)-6-bromo-4-[({4-[methyl(2-piperidin-1-ylethyl)amino]phenyl}amino)methylene]isoquinoline-1,3(2H,4H)-dione] | 5.44 | – | – | 5.51 | 5.12 | 5.28 | – | – | – | – | pIC50 (cyclin D1/cdk 4 enzyme; In Vitro Enzyme Assay, read-out: CDK4 IC50): 5.37; pIC50 (cyclin E/CDK2 enzyme; In Vitro Enzyme Assay, read-out: CDK2 IC50): < 4.30; pIC50 (cyclin B/CDK1 enzyme; In Vitro Enzyme Assay, read-out: CDK1 IC50): < 4.30
O=C1NC(=O)c2ccc(I)cc2/C1=C/Nc1ccc(N2CCN(Cc3ccoc3)CC2)cc1 [Example 390, (4Z)-4-[({4-[4-(3-Furylmethyl)piperazin-1-yl]phenyl}amino)methylene]-6-iodoisoquinoline-1,3(2H,4H)-dione] | < 4.30 | – | – | 4.77 | < 4.30 | 4.66 | – | 6.06 | 4.71 | 5.84 | –
O=C1NC(=O)c2ccc(-n3cccc3)cc2/C1=C/Nc1ccc(CN2CCCC2)cc1 [Example 72] | – | – | – | – | – | – | – | 6.72 | < 4.30 | < 4.30 | pIC50 (LoVo; [8]): 5.47; pIC50 (HCT-116; [11]): 5.47; pIC50 (BT474; [12]): 5.39; pIC50 (MCF-7; [13]): 5.59
CC(=O)c1ccc(-c2ccc3c(c2)C(=CNc2ccc(N4CCN(C)CC4)cc2)C(=O)NC3=O)cc1 [Example 688, 6-(4-Acetyl-phenyl)-4-{[4-(4-methyl-piperazin-1-yl)-phenylamino]-methylene}-4H-isoquinoline-1,3-dione] | 5.34 | 6.59 | < 4.30 | 5.70 | 5.48 | 5.30 | 4.68 | – | – | – | –
CN1CCN(c2ccc(N/C=C3\C(=O)NC(=O)c4ccc(NC(=O)Cc5cccs5)cc43)cc2)CC1 [Example 198, 1,2,3,4-Tetrahydroisoquinolin-6-yl]-2-thien-2-ylacetamide ′N-[(4Z)-4-({[4-(4-methylpiperazin-1-yl)phenyl]amino}methylene)-1,3-dioxo] | – | – | – | – | – | – | – | 5.51 | 4.66 | 4.92 | pIC50 (LoVo; three days): 5.43; pIC50 (HCT-116; three days): 5.74; pIC50 (BT474; BT474 cells, SRB, 6 days; read-out: In Vitro Cellular Activity IC50 BT474): 5.37; pIC50 (MCF-7; three days): 5.37
